Entries after “also recorded” stand apart in the source; their conditions may differ. Where two headings read alike, the source gives them in different places.
How the values were obtained:
apoptotic HeLa cells [1] = experiment: Modified APTT test with apoptotic HeLa cells as pro-coagulant surface; assay type: cell-based
Procedure: Apoptotic and control HeLa cells were prepared as described for the FACS analysis. Equal numbers of apoptotic or control non-treated cells (5×10^4) in a volume of […], were mixed with 100 μl of normal plasma, incubated for 1 min at 37° C. in a bath and then calcified by addition of 100 μl of 25 mM CaCl2, and clotting time was measured. Inhibition of the pro-coagulant activity of the apoptotic cells by NST500 compounds was tested following pre-incubation of apoptotic cells for 20 min. at room temperature with increased concentrations of the different NST 500 compounds.
The results can be seen in FIG. 4B.

apoptotic HeLa cells [2] = experiment: Binding to single apoptotic HeLa cells, fluorescent microscopy; assay type: cell-based
Procedure: Chamber slides were pre-coated with 0.1% gelatin (G-1393 Sigma). Cells were seeded at a density of 8×10^4 cells/chamber, in a volume of 300 μl of culture medium. Apoptosis was induced by treatment with dopamine (RBI, MA, USA). Following 24 hours of incubation, the medium was replaced by a low serum-containing medium (2% FCS), with 500 μM of dopamine, for 18 hours. Non-treated cells that served as control, were kept in the growing medium without dopamine.
For evaluation of apoptosis, cells were stained with 1 mg/ml of Hoechst 33342 dye (Molecular probes). Twenty minutes later, cells were visualized under UV light microscopy and the relative number of apoptotic cells with condensed or fragmented chromatin was then evaluated and compared with non-apoptotic cells, showing a pale and diffuse staining. Photomicrographs were taken for documentation, but are not shown here. For staining with NST500 compounds, the tested cultures were grown as specified above and washed twice with TBS (Tris Buffered Saline; 10 mM Tris PH 8.0; 150 mM NaCl). […]
As a positive control, binding of Annexin V was performed using commercial kit (Genzyme, Mass.). Binding was evaluated with a fluorescent microscope (IX70; Olympus), using an NIBA filter (Narrow Interference Blue A from Olympus) and a ×400 magnification. […]

cardiolipin = tested on: cardiolipin
From the text: The antiphospholipid antibody syndrom (APS) is a thrombophilic condition, characterized by a panel of antibodies that recognize anionic phospholipid-protein cofactor complexes. The antiphospholipid antibodies lupus anticoagulant and anticardiolipin, (present in high concentrations in SLE patients), are associated with several medical disorders including artherial and venous thrombosis, and recurrent pregnancy loss (Rand J H et al., 1998, Blood. 92, 1652–1660). […] Noncellular negatively charged phospholipid coated surface (cardiolipin) were chosen as a target for binding.
CL, (Diphosphatidylglycerol, c-1649, Sigma), prepared at 50 μg/ml in ethanol, was added to a 96 well plate (100 μl/well) using Immunolon 4 plates (Dynatech, Chantilly, Va.) and incubated for 16–20 hr for evaporation of ethanol. As control, wells were coated with ethanol only. The coated plates were washed 3 times with 100 μl of blocking buffer (PBS containing 0.3% gelatin (Sigma) and 1 mM EDTA) to block non specific binding. A 5 min incubation time was used between each wash. Normal plasma (Ilex, Italy, 84670-11) and plasma derived from SLE patients (either from Gradipore, Australia, LAHP-1, or from Biopool, Ventura, Calif.) were prepared according to the producer's instruction. The plasma was diluted 1/10 in the blocking buffer and was added to the CL and ethanol coated wells. […] Following 3 hr incubation, the plates were washed twice with PBS/BSA buffer (0.4% bovine serum albumine (BSA) in PBS). For detection of anti cardiolipin binding property of the tested plasma, the plates were incubated with a 1/10000 dilution of Peroxidase-conjugated affinity purified Goat anti-human IgG (Jackson Immunoresearch lab.) in PBS/BSA buffer for 1 hour. The plates were then washed 3 times with PBS/BSA buffer, and color reaction was developed by incubation with 100 ul of 0-phenylenedi-amine (OPD) dihydrochloride (Sigma p-7288) at a concentration of 0.4 mg/ml in 0.05 M phosphate citrate buffer, pH 5.0 supplemented with 4 ul of 30% hydrogen peroxide (Aldrich) for 10 ml mixture. To detect the level of NST500 compounds that were bound to CL, parallel wells were incubated with streptavidin conugated to OPD (SA-OPD, Jackson Immunoresearch lab.), that specifically recognize the biotinylated NST 500 compounds. The resulting colour changes were recorded at 405 nm using a Bio Tek Elx800 Eliza reader.

BeWo cells = experiment: Binding to single trophoblast BeWo cells, fluorescent microscopy; assay type: cell-based, Human
Procedure: The Human choriocarcinoma cell line BeWo that express low levels of PS on its plasma membrane (Rote N S et al., 1995, American J. of Reproductive Immunology 33, 114–121), was obtained from ECACC, cat # 86082803 and maintained in Ham's F12+ medium (01095-1A, Bet-Haemek, Israel). The medium was supplemented with 2mM of L-Glutamine; 100 units/ml of penicillin; 100 μg/ml of streptomycin, and 10% fetal calf serum (Bet-Haemek). The cells were passaged using 0.05% trypsine/EDTA (03-054-1B, Bet-Haemek,).

HUVEC cells = experiment: Cell-ELISA: binding of anti β2GPI antibodies to HUVEC cells; assay type: cell-based, Human
Procedure: Human β2GPI is a plasma phospholipid binding protein that is required for the binding of autoantibodies in sera from patients with APS to cardiolipin (McNeil H P et al., 1990 Proc. Natl. Acad. Sci. 87, 4120–4124). […] Anti β2GPI antibodies are present in sera of APS patients. […] For cell-ELISA tests, HUVEC cells (at 40,000/well), were plated on 96 well tissue culture plates (Nunc) in 200 μl of the culture medium, and allowed to grow for 18–22 hours. Following 2 washes with Hepes buffer (10 mM Hepes pH 8, 140 mM NaCl) and 5 min incubation with the culture medium, the wells were incubated for 3 hr with 10% of normal plasma in PBS (as a source of β2 GPI protein), supplemented with 1/500 of goat anti-human Apolipoprotein-H (β2 GPI) (Affinity biologicals, PA). Parallel control wells were incubated with 10% of normal plasma from Ilex. Serial dilutions of NST500 compounds were prepared in plasma/PBS. Washes and development were as described for anti CL ELISA.
As presented in FIG. 5B, in the presence of plasma and absence of NST500, HUVEC cells supported binding of anti β2GPI to their surface. However, displacement of anti β2GPI by NST500 compounds in this system occurred in a concentration dependent manner, similar to the results obtained with CL.

With “Myristate-KVSFFCKNKEKKC-K (SEQ ID NO:1) (biotin) [NST513]” the “effect on clotting time of apoptotic cells” value (apoptotic HeLa cells [1]; 2.5–2.2 μM) was “marked and dose dependent inhibition of clotting time; also recorded: dose-dependent effect”, the “increase of clotting time of apoptotic cells (factor)” value (apoptotic HeLa cells [1]; 2.5–2.2 μM) was 3.2 times and the “clotting time of apoptotic cells” value (apoptotic HeLa cells [1]; apoptotic cells alone 50 seconds, control cells 80 seconds) was 160 s. For the same substance, the “labeling of apoptotic HeLa cells” value (apoptotic HeLa cells [2]) was “potent detector of apoptotic cells”, the “labeling of control non-treated HeLa cells” value (apoptotic HeLa cells [2]) was “did not exhibit significant labeling” and the “displacement of plasma derived from SLE patients from cardiolipin” value (cardiolipin; 1 μM) was “did not exhibit displacement”. For the same substance, the “displacement of plasma derived from SLE patients from cardiolipin” value (cardiolipin; 10 μM) was “almost complete displacement”, the “inhibition of binding of plasma derived from SLE patients to cardiolipin, dose response” value (cardiolipin; 1–10 μM) was “marked displacement of IgG” and the “binding to BeWo cells” value (BeWo cells) was “Typical membrane labeling is observed; also recorded: Binding of the compound to the whole population of BeWo cells was demonstrated”. The “less potent than NST516 in blocking anti β2 GPI binding” value (HUVEC cells) was 50%.

Reference: patent US7196063B1, “Peptides and pharmaceutical compositions comprising same” (NST NeuroSurvival Technologies Ltd., priority 1999, dated 2007)
